Experimental data published in ChEMBL document CHEMBL3045916, “Synthesis, characterization, biological evaluation and in silico screening of oxadiazinanones” (Med Chem Res, 2013).
Converted amounts (≈) assume the structure as drawn.

Assays:
Staphylococcus aureus [1] = assay: Antibacterial activity against methicillin-resistant Staphylococcus aureus assessed as growth inhibition after 24 hr by macro-dilution method; type: functional
Escherichia coli [2] = assay: Bactericidal activity against Escherichia coli ATCC 25922 after 18 to 24 hr; type: functional
Klebsiella pneumoniae [3] = assay: Antibacterial activity against Klebsiella pneumoniae clinical isolate assessed as growth inhibition after 24 hr by disk diffusion method; type: functional
[4] = test system: Radical scavenging activity; assay: Antioxidant activity assessed as DPPH radical scavenging activity at 8 ug/mL after 30 min by spectrophotometric analysis relative to control; type: functional
[5] = test system: Radical scavenging activity; assay: Antioxidant activity assessed as DPPH radical scavenging activity after 30 min by spectrophotometric analysis; type: functional
Streptococcus pyogenes [6] = assay: Antibacterial activity against Streptococcus pyogenes clinical isolate assessed as growth inhibition after 24 hr by macro-dilution method; type: functional
Klebsiella pneumoniae [7] = assay: Bactericidal activity against Klebsiella pneumoniae clinical isolate after 18 to 24 hr; type: functional
Candida albicans [8] = assay: Antifungal activity against Candida albicans ATCC 90028 assessed as growth inhibition after 48 hr by agar disk diffusion method; type: functional
Aspergillus fumigatus [9] = assay: Antifungal activity against Aspergillus fumigatus assessed as growth inhibition after 48 hr by agar disk diffusion method; type: functional
[10] = test system: Radical scavenging activity; assay: Antioxidant activity assessed as DPPH radical scavenging activity at 6 ug/mL after 30 min by spectrophotometric analysis relative to control; type: functional
[11] = test system: Trichophyton mentagrophytes; assay: Fungicidal activity against Trichophyton mentagrophytes after 48 hr; type: functional
Staphylococcus aureus [12] = assay: Antibacterial activity against methicillin-resistant Staphylococcus aureus assessed as growth inhibition after 24 hr by disk diffusion method; type: functional
[13] = test system: Radical scavenging activity; assay: Antioxidant activity assessed as DPPH radical scavenging activity at 10 ug/mL after 30 min by spectrophotometric analysis relative to control; type: functional
[14] = test system: Trichophyton mentagrophytes; assay: Antifungal activity against Trichophyton mentagrophytes assessed as growth inhibition after 48 hr by agar disk diffusion method; type: functional
Talaromyces marneffei [15] = assay: Fungicidal activity against Talaromyces marneffei after 48 hr; type: functional
[16] = test system: Radical scavenging activity; assay: Antioxidant activity assessed as DPPH radical scavenging activity at 2 ug/mL after 30 min by spectrophotometric analysis relative to control; type: functional
Streptococcus pyogenes [17] = assay: Bactericidal activity against Streptococcus pyogenes clinical isolate after 18 to 24 hr; type: functional
Streptococcus pyogenes [18] = assay: Antibacterial activity against Streptococcus pyogenes clinical isolate assessed as growth inhibition after 24 hr by disk diffusion method; type: functional
Talaromyces marneffei [19] = assay: Antifungal activity against Talaromyces marneffei assessed as growth inhibition after 48 hr by macro-dilution method; type: functional
[20] = test system: Trichophyton mentagrophytes; assay: Antifungal activity against Trichophyton mentagrophytes assessed as growth inhibition after 48 hr by macro-dilution method; type: functional
[21] = test system: Radical scavenging activity; assay: Antioxidant activity assessed as DPPH radical scavenging activity at 4 ug/mL after 30 min by spectrophotometric analysis relative to control; type: functional
Pseudomonas aeruginosa [22] = assay: Antibacterial activity against Pseudomonas aeruginosa ATCC 9029 assessed as growth inhibition after 24 hr by macro-dilution method; type: functional; details: ATCC 9029, 24 h
Pseudomonas aeruginosa [23] = assay: Antibacterial activity against Pseudomonas aeruginosa ATCC 9029 assessed as growth inhibition after 24 hr by disk diffusion method; type: functional
Klebsiella pneumoniae [24] = assay: Antibacterial activity against Klebsiella pneumoniae clinical isolate assessed as growth inhibition after 24 hr by macro-dilution method; type: functional
Staphylococcus aureus [25] = assay: Bactericidal activity against methicillin-resistant Staphylococcus aureus after 18 to 24 hr; type: functional
Candida albicans [26] = assay: Antifungal activity against Candida albicans ATCC 90028 assessed as growth inhibition after 48 hr by macro-dilution method; type: functional; details: ATCC 90028, 48 h
Aspergillus fumigatus [27] = assay: Antifungal activity against Aspergillus fumigatus assessed as growth inhibition after 48 hr by macro-dilution method; type: functional
Aspergillus fumigatus [28] = assay: Fungicidal activity against Aspergillus fumigatus after 48 hr; type: functional
Escherichia coli [29] = assay: Antibacterial activity against Escherichia coli ATCC 8739 assessed as growth inhibition after 24 hr by macro-dilution method; details: ATCC 8739, 24 h
Pseudomonas aeruginosa [30] = assay: Bactericidal activity against Pseudomonas aeruginosa ATCC 9029 after 18 to 24 hr; type: functional
Talaromyces marneffei [31] = assay: Antifungal activity against Talaromyces marneffei assessed as growth inhibition after 48 hr by agar disk diffusion method; type: functional
Candida albicans [32] = assay: Fungicidal activity against Candida albicans ATCC 90028 after 48 hr; type: functional; details: ATCC 90028, 48 h
Escherichia coli [33] = assay: Antibacterial activity against Escherichia coli ATCC 25922 assessed as growth inhibition after 24 hr by disk diffusion method; type: functional

Structure (SMILES) | Activity [4] | IC50 [5] | diameter of the inhibition zone (DIZ) (Candida albicans [8]) | diameter of the inhibition zone (DIZ) (Aspergillus fumigatus [9]) | Activity [10] | MFC [11] | diameter of the inhibition zone (DIZ) (Staphylococcus aureus [12]) | Activity [13] | diameter of the inhibition zone (DIZ) [14] | MFC (Talaromyces marneffei [15]) | Activity [16] | MIC (Talaromyces marneffei [19]) | MIC [20] | Activity [21] | diameter of the inhibition zone (DIZ) (Pseudomonas aeruginosa [23]) | MIC (Candida albicans [26]) | MIC (Aspergillus fumigatus [27]) | MFC (Aspergillus fumigatus [28]) | diameter of the inhibition zone (DIZ) (Talaromyces marneffei [31]) | MFC (Candida albicans [32]) | also measured
CC1(c2ccccc2)NNC(=O)CO1 (stereo not drawn) | 46.8% | 8.25 µg/mL (≈ 42.9 µM) | 21.4 mm | 17.2 mm | 34.8% | 50 µg/mL (≈ 260 µM) | 18.2 mm | 59.5% | 14.5 mm | 100 µg/mL (≈ 520 µM) | 9.86% | 25 µg/mL (≈ 130 µM) | 25 µg/mL (≈ 130 µM) | 23.8% | 24.2 mm | 25 µg/mL (≈ 130 µM) | 25 µg/mL (≈ 130 µM) | 50 µg/mL (≈ 260 µM) | 14.1 mm | 25 µg/mL (≈ 130 µM) | MIC (Staphylococcus aureus [1]): 25 µg/mL (≈ 130 µM); MBC (Escherichia coli [2]): 50 µg/mL (≈ 260 µM); diameter of the inhibition zone (DIZ) (Klebsiella pneumoniae [3]): 14.1 mm; MIC (Streptococcus pyogenes [6]): 25 µg/mL (≈ 130 µM); MBC (Klebsiella pneumoniae [7]): 100 µg/mL (≈ 520 µM); MBC (Streptococcus pyogenes [17]): 50 µg/mL (≈ 260 µM); diameter of the inhibition zone (DIZ) (Streptococcus pyogenes [18]): 19.1 mm; MIC (Pseudomonas aeruginosa [22]): 25 µg/mL (≈ 130 µM); MIC (Klebsiella pneumoniae [24]): 25 µg/mL (≈ 130 µM); MBC (Staphylococcus aureus [25]): 50 µg/mL (≈ 260 µM); MIC (Escherichia coli [29]): 25 µg/mL (≈ 130 µM); MBC (Pseudomonas aeruginosa [30]): 100 µg/mL (≈ 520 µM); diameter of the inhibition zone (DIZ) (Escherichia coli [33]): 17.4 mm
CC1(c2ccc(O)cc2)NNC(=O)CO1 (stereo not drawn) | 49% | 8.02 µg/mL (≈ 38.5 µM) | 22.4 mm | 19.4 mm | 37.2% | 50 µg/mL (≈ 240 µM) | 18.3 mm | 62.4% | 16.3 mm | 100 µg/mL (≈ 480 µM) | 11.9% | 50 µg/mL (≈ 240 µM) | 25 µg/mL (≈ 120 µM) | 25.1% | 24.4 mm | 25 µg/mL (≈ 120 µM) | 50 µg/mL (≈ 240 µM) | 100 µg/mL (≈ 480 µM) | 15.1 mm | 100 µg/mL (≈ 480 µM) | MIC (Staphylococcus aureus [1]): 25 µg/mL (≈ 120 µM); MBC (Escherichia coli [2]): 100 µg/mL (≈ 480 µM); diameter of the inhibition zone (DIZ) (Klebsiella pneumoniae [3]): 14.6 mm; MIC (Streptococcus pyogenes [6]): 25 µg/mL (≈ 120 µM); MBC (Klebsiella pneumoniae [7]): 50 µg/mL (≈ 240 µM); MBC (Streptococcus pyogenes [17]): 50 µg/mL (≈ 240 µM); diameter of the inhibition zone (DIZ) (Streptococcus pyogenes [18]): 19.3 mm; MIC (Pseudomonas aeruginosa [22]): 25 µg/mL (≈ 120 µM); MIC (Klebsiella pneumoniae [24]): 25 µg/mL (≈ 120 µM); MBC (Staphylococcus aureus [25]): 50 µg/mL (≈ 240 µM); MIC (Escherichia coli [29]): 50 µg/mL (≈ 240 µM); MBC (Pseudomonas aeruginosa [30]): 100 µg/mL (≈ 480 µM); diameter of the inhibition zone (DIZ) (Escherichia coli [33]): 18.4 mm
O=C(O)c1cn(C2CC2)c2cc(N3CCNCC3)c(F)cc2c1=O [CIPROFLOXACIN] |  |  |  |  |  |  | 21 mm |  |  |  |  |  |  |  | 31.5 mm |  |  |  |  |  | diameter of the inhibition zone (DIZ) (Escherichia coli [33]): 27.5 mm
CC1(c2cc(O)ccc2O)NNC(=O)CO1 (stereo not drawn) | 30.3% | 12.95 µg/mL (≈ 57.8 µM) | 21.4 mm | 16.8 mm | 25.2% | 100 µg/mL (≈ 446 µM) | 17.6 mm | 32.3% | 14.8 mm | 100 µg/mL (≈ 446 µM) | 6.61% | 50 µg/mL (≈ 223 µM) | 50 µg/mL (≈ 223 µM) | 18.7% | 24.1 mm | 50 µg/mL (≈ 223 µM) | 50 µg/mL (≈ 223 µM) | 100 µg/mL (≈ 446 µM) | 11.7 mm | 100 µg/mL (≈ 446 µM) | MIC (Staphylococcus aureus [1]): 50 µg/mL (≈ 223 µM); MBC (Escherichia coli [2]): 100 µg/mL (≈ 446 µM); diameter of the inhibition zone (DIZ) (Klebsiella pneumoniae [3]): 14.8 mm; MIC (Streptococcus pyogenes [6]): 50 µg/mL (≈ 223 µM); MBC (Klebsiella pneumoniae [7]): 100 µg/mL (≈ 446 µM); MBC (Streptococcus pyogenes [17]): 100 µg/mL (≈ 446 µM); diameter of the inhibition zone (DIZ) (Streptococcus pyogenes [18]): 18.6 mm; MIC (Pseudomonas aeruginosa [22]): 50 µg/mL (≈ 223 µM); MIC (Klebsiella pneumoniae [24]): 50 µg/mL (≈ 223 µM); MBC (Staphylococcus aureus [25]): 100 µg/mL (≈ 446 µM); MIC (Escherichia coli [29]): 50 µg/mL (≈ 223 µM); MBC (Pseudomonas aeruginosa [30]): 100 µg/mL (≈ 446 µM); diameter of the inhibition zone (DIZ) (Escherichia coli [33]): 17.2 mm
O=C1O[C@H]([C@@H](O)CO)C(O)=C1O [ASCORBIC ACID] | 69.3% | 4.45 µg/mL (≈ 25.3 µM) |  |  | 53.4% |  |  | 87% |  |  | 18.4% |  |  | 34.9% |  |  |  |  |  |  | 
C[C@@H]1[C@H](O)[C@@H](C)/C=C/C=C/C=C/C=C/C=C/C=C/C=C/[C@H](O[C@@H]2O[C@H](C)[C@@H](O)[C@H](N)[C@@H]2O)C[C@@H]2O[C@](O)(C[C@@H](O)C[C@@H](O)[C@H](O)CC[C@@H](O)C[C@@H](O)CC(=O)O[C@H]1C)C[C@H](O)[C@H]2C(=O)O [AMPHOTERICIN B] |  |  | 30.5 mm | 26.5 mm |  | 25 µg/mL (≈ 27.1 µM) |  |  | 23.5 mm | 25 µg/mL (≈ 27.1 µM) |  | 12.5 µg/mL (≈ 13.5 µM) | 6.25 µg/mL (≈ 6.76 µM) |  |  | 6.25 µg/mL (≈ 6.76 µM) | 12.5 µg/mL (≈ 13.5 µM) | 25 µg/mL (≈ 27.1 µM) | 21.5 mm | 25 µg/mL (≈ 27.1 µM) | 
CC1(c2cccc(O)c2)NNC(=O)CO1 (stereo not drawn) | 66.3% | 5.99 µg/mL (≈ 28.8 µM) | 25.5 mm | 22.4 mm | 50.2% | 25 µg/mL (≈ 120 µM) | 19.1 mm | 82.8% | 17.2 mm | 50 µg/mL (≈ 240 µM) | 16.7% | 12.5 µg/mL (≈ 60 µM) | 12.5 µg/mL (≈ 60 µM) | 31.8% | 26.2 mm | 12.5 µg/mL (≈ 60 µM) | 12.5 µg/mL (≈ 60 µM) | 50 µg/mL (≈ 240 µM) | 14.5 mm | 25 µg/mL (≈ 120 µM) | MIC (Staphylococcus aureus [1]): 12.5 µg/mL (≈ 60 µM); MBC (Escherichia coli [2]): 50 µg/mL (≈ 240 µM); diameter of the inhibition zone (DIZ) (Klebsiella pneumoniae [3]): 15.1 mm; MIC (Streptococcus pyogenes [6]): 12.5 µg/mL (≈ 60 µM); MBC (Klebsiella pneumoniae [7]): 25 µg/mL (≈ 120 µM); MBC (Streptococcus pyogenes [17]): 25 µg/mL (≈ 120 µM); diameter of the inhibition zone (DIZ) (Streptococcus pyogenes [18]): 19.4 mm; MIC (Pseudomonas aeruginosa [22]): 12.5 µg/mL (≈ 60 µM); MIC (Klebsiella pneumoniae [24]): 12.5 µg/mL (≈ 60 µM); MBC (Staphylococcus aureus [25]): 25 µg/mL (≈ 120 µM); MIC (Escherichia coli [29]): 12.5 µg/mL (≈ 60 µM); MBC (Pseudomonas aeruginosa [30]): 25 µg/mL (≈ 120 µM); diameter of the inhibition zone (DIZ) (Escherichia coli [33]): 25.4 mm
